Test results published in US20060239945A1, “Cleansing composition” (Conopco Inc, d/b/a UNILEVER, priority 2004, published 2006).

How the values were obtained:
human skin = test: Skin delivery of resorcinol from product applied to human volunteer forearms; format: in vivo; details: for Skin Delivery of ER: 2.5% ER, pH 6.5, percentage of initial dose after rinse
Protocol: Delivery of resorcinol on human skin was assessed through direct application of product to human volunteer forearms. A known dose of the product was applied to the area, and the product was rubbed into the area. The area on the arm was rinsed with a fixed amount of water. The collected rinse liquor was analyzed for resorcinol, and the amount delivered to skin was calculated by subtracting from the dosage applied. This is expressed as a percentage of the initial dose.

[1] = tested on: skin colour of human panelists' face; test: Efficacy on skin-lightening, half-face cleanser use versus placebo cleanser; format: in vivo
From the text: Thirty three human panelists are recruited who are required to use a known amount of the cleansing product on one half of their face. At the same time, the other half was rinsed with a placebo cleanser. Panelists were required to do this for eight weeks. The color of the skin is monitored at regular intervals by trained visual graders and instruments. A final assessment is made at eight weeks. The value for skin-lightening indicated is in comparison to the placebo effect.

[2] = Product stability by visual assessment of color and homogeneity after storage; format: physicochemical; details: for Color Stability of ER / Color Stability / Homogeneity: 2.5% ER; for Color Stability / Homogeneity: 3 months at ~25° C., visual
Protocol: Stability of product is evaluated after a storage period of 3 months at ˜25° C. by visual measurement to assess color and homogeneity of product.

[3] = liquid cleanser with 7% neutralised fatty acid (C18/C14/C12 mix), pH 9.2
[4] = liquid cleanser with 7% sodium lauryl sulphate, pH 6.5

SMILES: CCc1ccc(O)cc1O [4 ethyl resorcinol]
- delivery of 4 ethyl resorcinol from the formulation on the skin (human skin; anionic and amphoteric surfactant, or in combination with a nonionic surfactant): significant delivery
- Skin Delivery of ER (human skin; cleanser with SLES (3EO) 4.5%, coca amido propyl betaine 1.47%, decyl polyglucoside 1.5%): 12.4%
- Skin Delivery of ER (human skin; cleanser with SLES (3EO) 6.8%, coca amido propyl betaine 2.2%): 7.7%
- Efficacy on skin-lightening ([1]; cleanser with SLES (3EO) 6.8%, coca amido propyl betaine 2.2%, 2.5% ER, pH 6.5, eight weeks, in comparison to placebo effect): −0.7
- skin colour (lightening) ([1]; through a cleansing system with anionic and amphoteric surfactant): significantly improves skin colour
- Color Stability of ER ([2]; cleanser with SLES (3EO) 4.5%, coca amido propyl betaine 1.47%, decyl polyglucoside (HLB 13-15) 1.5%, pH 6.5): Good
- Color Stability of ER ([2]; cleanser with SLES (3EO) 6.8%, coca amido propyl betaine 2.2%, pH 6.5): Good
- Color Stability [2, 3]: Dark brown
- Homogeneity [2, 3]: Small precipitate
- Color Stability [2, 4]: Good
- Homogeneity [2, 4]: Good
- stability of 4 ethyl resorcinol in the formulation ([2]; pH of the formulation below 7.5): good
